Measured values reported in BindingDB's records for patent US20240092770 (Recursion Pharmaceuticals, 2024).

Target: T1, RNA-binding protein 39 [150-331]/DDB1- and CUL4-associated factor 15 (Homo sapiens, UniProt Q14498+Q66K64)
T1 construct: 150-331
Assay: TR-FRET Assay
Experimental: A TR-FRET assay was used to assess the effect of compounds disclosed herein on the interaction between RBM39 and the DCAF15 complex. Test compounds were dissolved to form a 10 mM DMSO stock solution. A 45 μL aliquot of the stock solution was transferred to a 384 pp-plate, and a threefold, 8-point dilution was performed via transferring 15 μL compound solution into 30 μL of DMSO. The plates were then spun at room temperature at 1,000 RPM for 1 minute. A 30 nL aliquot of the diluted compound was transferred to a 384 well plate, which was incubated at room temperature for 15 minutes. Next, Solutions 1, 2, and 3 were prepared as described in the below tables. A 5 μL aliquot of Solution 2 was added to each well, followed by 5 μL of Solution 3 to start the reaction. The final volume of each well was 10 μL. The plates were incubated at room temperature for 60 minutes, and then read.

T1 sequence (Q66K64 whole entry): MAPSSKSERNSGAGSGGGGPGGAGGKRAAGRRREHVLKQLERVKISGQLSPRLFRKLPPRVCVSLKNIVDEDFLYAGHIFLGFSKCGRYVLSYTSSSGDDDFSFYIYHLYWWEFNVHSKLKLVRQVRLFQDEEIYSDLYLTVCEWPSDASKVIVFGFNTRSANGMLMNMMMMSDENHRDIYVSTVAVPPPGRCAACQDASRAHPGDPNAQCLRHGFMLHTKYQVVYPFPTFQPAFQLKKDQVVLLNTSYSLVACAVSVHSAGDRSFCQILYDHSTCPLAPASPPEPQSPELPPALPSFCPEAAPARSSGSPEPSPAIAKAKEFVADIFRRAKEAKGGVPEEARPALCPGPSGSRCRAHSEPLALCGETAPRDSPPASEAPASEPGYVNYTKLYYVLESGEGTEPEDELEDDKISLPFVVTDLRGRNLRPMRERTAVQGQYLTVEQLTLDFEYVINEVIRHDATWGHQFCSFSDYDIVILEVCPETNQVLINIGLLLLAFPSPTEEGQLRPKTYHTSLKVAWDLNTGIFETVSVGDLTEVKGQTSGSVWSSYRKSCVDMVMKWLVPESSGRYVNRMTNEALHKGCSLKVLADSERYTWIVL
T1 sequence (Q14498 150-331): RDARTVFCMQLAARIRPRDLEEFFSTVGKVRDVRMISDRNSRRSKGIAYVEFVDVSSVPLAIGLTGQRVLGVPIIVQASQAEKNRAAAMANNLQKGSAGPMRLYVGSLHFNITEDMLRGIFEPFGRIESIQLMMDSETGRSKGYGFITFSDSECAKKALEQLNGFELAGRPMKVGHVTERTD

- EC50: 1090 nM
Structure (SMILES): Cc1ccc(NS(=O)(=O)c2ncc(C(F)(F)F)s2)c2[nH]cc(C#N)c12 [US20240092770, Compound 25]
